How the values were obtained:
Assay type in all cases: in vivo
[1] = tested on: Atherosclerotic plaques, New Zealand White rabbits; experiment: Development of atherosclerotic plaques in rabbits on experimental diets (Example 1); settings: control diet without cholesterol; flaxseed 15% of diet or SDG 15 mg/kg oral; 2 months
Procedure: (§1) Experiments were carried out on six to eight week old female New Zealand white rabbits weighing between 1.8 and 2.0 kg. All procedures relating to the care and welfare of test animals within this experimental protocol conformed to a Standard Operating Procedure (SOP) approved by the Council on Animal Care, University of Saskatchewan, Saskatoon, Saskatchewan, Canada.
Blood samples for measurement of triglycerides (TG), total cholesterol (TC), low density lipoprotein cholesterol (LDL-C), very-low density lipoprotein cholesterol (VLDL-C), and high density lipoprotein cholesterol (HDL-C) were taken before the animals were assigned to the experimental diet (T=0), and after 1 (T=1) and 2 months (T=2) on the experimental diet. The rabbits were sacrificed under pentabarbital anesthesia at the end of 2 months. The aorta was removed for the assessment of atherosclerotic plaques.
Much has been made of the importance of the composition of certain dietary fats toward health, particularly in relation to the degree of saturation of the fatty acid composition of the triglycerides.

[2] = tested on: diabetes mellitus, BBdp rats; experiment: Spontaneously developing IDDM in diabetic prone BB (BBdp) rats (Example 5); settings: SDG 22 mg/kg daily
Procedure: Two animal models of IDDM used were: streptozotocin-induced and diabetic prone (dp) BB rats (BBdp). The Zucker diabetic fatty rat (ZDF), an animal model closely resembling human NIDDM, was used for NIDDM.
BBdp rats develop diabetes melliuts spontaneously. […] Serum malondialdehyde (MDA) a measure of levels of oxygen radicals, and antioxidant reserve [pancreatic-chemiluminescence (Pancreatic-CL)] were assessed in blood and pancreas. Male 35-day old BBdp and age matched nondiabetic prone BE (BBn) rats were obtained from Animal Resources Division, Health Protection Branch (Ottawa, Canada).
Two rats from BBn and 4 rats from BBdp at the age of 35 days were sacrificed to measure serum glucose and MDA, and pancreatic MDA and antioxidant reserve. […] Diagnosis of diabetes mellitus was established by testing for the presence of glucosuria which was done every altenate day for 120 days or until glucosuria appeared. Once they developed diabetes or at the end of 120 days rats were anesthetized with nembutal sodium. Blood samples were taken to measure serum glucose and MDA, and pancreas were removed to assess pancreatic MDA and antioxidant reserve. None of the BBdp rats tested positive for glucosuria at 5 weeks and at that age the serum glucose in BBn and BBdp rats were 8.75±0.63 and 10.03±0.65 mmoles/L respectively.

[3] = tested on: streptozotocin-induced diabetes mellitus, Sprague-Dawley rats; experiment: Streptozotocin-induced diabetes mellitus in rats (Example 3); settings: for Plasma Glucose: mean + S.E., P<0.05 vs Group I and vs Group II
Procedure: Experimental diabetes mellitus was produced in Sprague-Dawley rats by injecting streptozotocin (STZ, 65 mg/kg) intravenously. Diagnosis of diabetes mellitus was established by testing for the presence of glucosuria with Ames Multi Stix (Miles Canada Inc., Etobicoke, Ontario) on the 3rd day after streptozotocin administration. The rats were divided into 4 groups.

[4] = tested on: endotoxic shock, anesthetized dogs; experiment: Endotoxic-shock-induced changes in cardiovascular function, contractility, MDA and antioxidant reserve in anesthetized dogs (Example 2); settings: SDG 10 mg/kg i.v. 15 min prior to endotoxin 5 mg/kg i.v.
Procedure: The dogs were divided into three groups. Group I, (sham 3 hours, n=5). Group II, (ET, n=9), these dogs received endotoxin (5 mg/kg, intravenously). […] Mean aortic blood pressure (mAo), cardiac index (CI) a measure of cardiac function, and cardiac contractility (dp/dt at CPIP/PAW) were measured before (0 min) and at 30 min, 60 min, 90 min, 120 min and 180 min after endotoxin administration. At the end of 3 hours of experiment heart was removed for measurement of MDA and antioxidant reserve. Cardiac function and contractility were measured. Left ventricular MDA (LV-MDA) and left ventricular chemiluminescence (LV-CL) a measure of antioxidant reserve were also estimated.

[5] = tested on: hypercholesterolemic atherosclerosis, New Zealand White rabbits; experiment: Comparison with other compounds: hypercholesterolemic atherosclerosis and total cholesterol in rabbits; settings: compared with Vitamin E
From the text: The effect of Probucol on reducing atherosclerosis varied between 15-45%, depending upon the extent of the hypercholesterolemia.
The mechanism of action for Vitamin E is now generally accepted as preventing the development of hypercholesterolemic atherosclerosis through its antioxidant activity and its ability to scavenge free radicals in the bloodstream.

[6] = tested on: New Zealand white rabbits; experiment: Serum lipids (TC, LDL-C, VLDL-C, HDL-C, triglycerides) in rabbits on experimental diets (Example 1)
Procedure: as §1
Blood samples for measurement of triglycerides (TG), total cholesterol (TC), low density lipoprotein cholesterol (LDL-C), very-low density lipoprotein cholesterol (VLDL-C), and high density lipoprotein cholesterol (HDL-C) were taken before the animals were assigned to the experimental diet (T=0), and after 1 (T=1) and 2 months (T=2) on the experimental diet. The rabbits were sacrificed under pentabarbital anesthesia at the end of 2 months. The aorta was removed for the assessment of atherosclerotic plaques. […]

[7] = SDG 22 mg/kg orally for 3 days + STZ 65 mg/kg i.v., 12 rats/group
[8] = SDG 44 mg/kg orally for 3 days + STZ 65 mg/kg i.v., 10 rats/group
[9] = 0 month, + 1% cholesterol group
[10] = 0 month, control diet without cholesterol
[11] = 1 month, + 1% cholesterol, flaxseed 15% or SDG 15 mg/kg oral
[12] = 1 month, control diet without cholesterol, flaxseed 15% or SDG 15 mg/kg oral
[13] = 2 months, + 1% cholesterol, flaxseed 15% or SDG 15 mg/kg oral
[14] = 2 months, control diet without cholesterol, flaxseed 15% or SDG 15 mg/kg oral

Structure (SMILES): COc1cc(CC(COC2OC(CO)C(O)C(O)C2O)C(COC2OC(CO)C(O)C(O)C2O)Cc2ccc(O)c(OC)c2)ccc1O (centres unmarked) [SDG, secoisolariciresinol diglucoside]
- Atherosclerotic plaques (% of total internal surface area) [1]: 0 % of total internal surface ar
- rats that developed diabetes ([2]; orally in drinking water, up to 120 days, untreated BBdp 72.7%): 21.4%
- prevention of the development of diabetes ([2]; orally in drinking water, vs untreated BBdp): 70.55%
- Pancreatic / serum MDA ([2]; both nondiabetic and diabetic, vs untreated BBdp): lower in the SDG-treated group in both nondiabetic and diabetic as compared to untreated BBdp rats
- serum glucose, rats that developed diabetes ([2]; compared with nondiabetic SDG-treated BBdp): higher than those not developing diabetes in this group
- onset of diabetes ([2]; rats that developed diabetes): delayed the onset of diabetes in ones that developed diabetes
- Pancreatic antioxidant reserve (Pancreatic-CL) ([2]; untreated BBdp vs control or SDG-treated group): slightly lower in the untreated group as compared to the control or SDG-treated group but were not significant
- # Rats Developing Diabetes [3, 7]: 2 rats
- percent of rats developing diabetes mellitus [3, 7]: 16.6%
- Plasma Glucose ([3]; SDG 22 mg/kg orally for 3 days + STZ): 9.63 ± 0.71 mmol/L
- preventing the development of diabetes, 44 mg/kg compared with 22 mg/kg ([3]; SDG 44 mg/kg): more effective than in the dose of 22 mg/kg
- # Rats Developing Diabetes [3, 8]: 1 rats
- percent of rats developing diabetes mellitus [3, 8]: 10%
- Plasma Glucose ([3]; SDG 44 mg/kg orally for 3 days + STZ): 10.01 ± 0.76 mmol/L
- plasma glucose levels compared with streptozotocin-treated group ([3]; SDG 22 and 44 mg/kg): much lower than those in streptozotocin-treated group
- prevention of the development of STZ-induced diabetes mellitus ([3]; SDG 22 and 44 mg/kg, overall): approximately 81%
- Mean aortic blood pressure (mAo), ET-induced fall [4]: prevented the ET-induced fall in mAO up to 30 min
- Left ventricular MDA (LV-MDA), ET-induced increase ([4]; 3 hours): prevented the ET-induced increase in LV-MDA
- antioxidant reserve (LV-CL), ET-induced decrease ([4]; 3 hours): prevented the ET-induced decrease in antioxidant reserve
- reduction of hypercholesterolemic atherosclerosis and of total blood cholesterol [5]: accomplishes both
- Serum HDL-C levels [6, 9]: 0.62 ± 0.10 mmol/L
- Serum LDL-C levels [6, 9]: 1.09 ± 0.19 mmol/L
- Serum Triglyceride levels [6, 9]: 1.21 ± 0.09 mmol/L
- Serum VLDL-C levels [6, 9]: 0.55 ± 0.04 mmol/L
- Total serum cholesterol levels [6, 9]: 2.26 ± 0.25 mmol/L
- Serum HDL-C levels [6, 10]: 0.58 ± 0.09 mmol/L
- Serum LDL-C levels [6, 10]: 0.34 ± 0.09 mmol/L
- Serum Triglyceride levels [6, 10]: 1.10 ± 0.13 mmol/L
- Serum VLDL-C levels [6, 10]: 0.50 ± 0.06 mmol/L
- Total serum cholesterol levels [6, 10]: 1.42 ± 0.11 mmol/L
- Serum HDL-C levels [6, 11]: 1.30 ± 0.18 mmol/L
- Serum LDL-C levels [6, 11]: 66.26 ± 7.23 mmol/L
- Serum Triglyceride levels [6, 11]: 1.40 ± 0.17 mmol/L
- Serum VLDL-C levels [6, 11]: 0.64 ± 0.08 mmol/L
- Total serum cholesterol levels [6, 11]: 68.20 ± 7.41 mmol/L
- Serum HDL-C levels [6, 12]: 0.60 ± 0.06 mmol/L
- Serum LDL-C levels [6, 12]: 0.33 ± 0.06 mmol/L
- Serum Triglyceride levels [6, 12]: 0.63 ± 0.02 mmol/L
- Serum VLDL-C levels [6, 12]: 0.29 ± 0.01 mmol/L
- Total serum cholesterol levels [6, 12]: 1.22 ± 0.11 mmol/L
- Serum HDL-C levels [6, 13]: 1.20 ± 0.48 mmol/L
- Serum LDL-C levels [6, 13]: 43.25 ± 6.64 mmol/L
- Serum Triglyceride levels [6, 13]: 1.83 ± 0.35 mmol/L
- Serum VLDL-C levels [6, 13]: 0.83 ± 0.16 mmol/L
- Total serum cholesterol levels [6, 13]: 45.18 ± 6.68 mmol/L
- Serum HDL-C levels [6, 14]: 0.50 ± 0.00 mmol/L
- Serum LDL-C levels [6, 14]: 0.25 ± 0.04 mmol/L
- Serum Triglyceride levels [6, 14]: 0.60 ± 0.12 mmol/L
- Serum VLDL-C levels [6, 14]: 0.27 ± 0.02 mmol/L
- Total serum cholesterol levels [6, 14]: 1.12 ± 0.10 mmol/L
